# Key:
# Assay in all cases: relative viability (nuclei count vs DMSO), 5 days (fraction); higher = more cells survive
# A-427 = test system: A-427
# Summary of the method: (§1)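 Nuclei were stained with Hoechst during a one-step fixation (final 0.05% Triton X-100, 1% formaldehyde, 1 ug/ml Hoechst) carried out 5 days after dosing, then counted on 4× images. The cells, lung cancer lines in 1536-well plates, had been dosed by pin tool the day after seeding with one drug alone or a fixed anchor-drug dose plus five library-drug doses (not always all listed) in √10 steps. Relative viability is the nuclei count in treated wells divided by that in vehicle wells, and each value is the median of duplicate plates.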
# A549 = test system: A549
# Summary of the method: as §1
# Calu-6 = test system: Calu-6
# Summary of the method: as §1
# EBC-1 = test system: EBC-1
# Summary of the method: as §1
# HCC-44 = test system: HCC-44
# Summary of the method: as §1
# IA-LM = test system: IA-LM
# Summary of the method: as §1
# NCI-H1299 = test system: NCI-H1299
# Summary of the method: as §1
# NCI-H1648 = test system: NCI-H1648
# Summary of the method: as §1
# NCI-H1650 = test system: NCI-H1650
# Summary of the method: as §1
# NCI-H1703 = test system: NCI-H1703
# Summary of the method: as §1
# NCI-H1993 = test system: NCI-H1993
# Summary of the method: as §1
# NCI-H2023 = test system: NCI-H2023
# Summary of the method: as §1
# RERF-LC-KJ = test system: RERF-LC-KJ
# Summary of the method: as §1
# SW 1573 = test system: SW 1573
# Summary of the method: as §1
structure (smiles),measurement,setting,value
COCC1(CO)C(=O)C2CCN1CC2 (centres undefined) [PRIMA-1MET] + O=C(c1cc(Cc2n[nH]c(=O)c3ccccc23)ccc1F)N1CCN(C(=O)C2CC2)CC1 [Olaparib] (partner 8 µM),relative viability,A-427; first compound 0.2 µM,0.918
same,relative viability,A-427; first compound 0.6325 µM,0.607
same,relative viability,A-427; first compound 2 µM,0.746
same,relative viability,A-427; first compound 6.325 µM,0.765
same,relative viability,A-427; first compound 20 µM,0.687
same,relative viability,A549; first compound 0.2 µM,0.528
same,relative viability,A549; first compound 0.6325 µM,0.365
same,relative viability,A549; first compound 2 µM,0.379
same,relative viability,A549; first compound 6.325 µM,0.371
same,relative viability,A549; first compound 20 µM,0.266
same,relative viability,Calu-6; first compound 0.2 µM,0.547
same,relative viability,Calu-6; first compound 0.6325 µM,0.588
same,relative viability,Calu-6; first compound 2 µM,0.594
same,relative viability,Calu-6; first compound 6.325 µM,0.516
same,relative viability,Calu-6; first compound 20 µM,0.443
same,relative viability,EBC-1; first compound 0.2 µM,0.692
same,relative viability,EBC-1; first compound 0.6325 µM,0.712
same,relative viability,EBC-1; first compound 2 µM,0.701
same,relative viability,EBC-1; first compound 6.325 µM,0.828
same,relative viability,EBC-1; first compound 20 µM,0.7
same,relative viability,HCC-44; first compound 0.2 µM,1.06
same,relative viability,HCC-44; first compound 0.6325 µM,0.969
same,relative viability,HCC-44; first compound 2 µM,1.12
same,relative viability,HCC-44; first compound 6.325 µM,0.969
same,relative viability,HCC-44; first compound 20 µM,0.945
same,relative viability,IA-LM; first compound 0.2 µM,0.867
same,relative viability,IA-LM; first compound 0.6325 µM,0.676
same,relative viability,IA-LM; first compound 2 µM,0.905
same,relative viability,IA-LM; first compound 6.325 µM,0.819
same,relative viability,IA-LM; first compound 20 µM,0.788
same,relative viability,NCI-H1299; first compound 0.2 µM,0.984
same,relative viability,NCI-H1299; first compound 0.6325 µM,0.921
same,relative viability,NCI-H1299; first compound 2 µM,0.99
same,relative viability,NCI-H1299; first compound 6.325 µM,0.959
same,relative viability,NCI-H1299; first compound 20 µM,0.984
same,relative viability,NCI-H1648; first compound 0.2 µM,0.747
same,relative viability,NCI-H1648; first compound 2 µM,1.43
same,relative viability,NCI-H1648; first compound 20 µM,0.912
same,relative viability,NCI-H1650; first compound 0.2 µM,0.75
same,relative viability,NCI-H1650; first compound 0.6325 µM,0.744
same,relative viability,NCI-H1650; first compound 2 µM,0.75
same,relative viability,NCI-H1650; first compound 6.325 µM,0.709
same,relative viability,NCI-H1650; first compound 20 µM,0.585
same,relative viability,NCI-H1703; first compound 0.2 µM,0.422
same,relative viability,NCI-H1703; first compound 6.325 µM,0.769
same,relative viability,NCI-H1703; first compound 20 µM,0.0733
same,relative viability,NCI-H1993; first compound 0.2 µM,1.21
same,relative viability,NCI-H1993; first compound 2 µM,0.95
same,relative viability,NCI-H1993; first compound 6.325 µM,1.07
same,relative viability,NCI-H1993; first compound 20 µM,0.896
same,relative viability,NCI-H2023; first compound 0.2 µM,0.576
same,relative viability,NCI-H2023; first compound 0.6325 µM,0.478
same,relative viability,NCI-H2023; first compound 2 µM,0.489
same,relative viability,NCI-H2023; first compound 6.325 µM,0.442
same,relative viability,NCI-H2023; first compound 20 µM,0.29
same,relative viability,RERF-LC-KJ; first compound 0.2 µM,0.969
same,relative viability,RERF-LC-KJ; first compound 0.6325 µM,0.988
same,relative viability,RERF-LC-KJ; first compound 2 µM,0.977
same,relative viability,RERF-LC-KJ; first compound 6.325 µM,1.09
same,relative viability,RERF-LC-KJ; first compound 20 µM,0.922
same,relative viability,SW 1573; first compound 0.2 µM,0.672
same,relative viability,SW 1573; first compound 2 µM,0.388
same,relative viability,SW 1573; first compound 6.325 µM,0.0574
same,relative viability,SW 1573; first compound 20 µM,0.0284

# From the supplement of paper PMC10307832
